In ChEMBL document CHEMBL5154774, “Discovery of Novel Celastrol-Imidazole Derivatives with Anticancer Activity In Vitro and In Vivo” (J Med Chem, 2022):
Calls of active or inactive are those of the source. No cut-off for these calls is given here.

What was measured:
A549 [1] = experiment: Antitumor activity against human A549 cells xenografted in BALB/c mouse lung tumor model assessed as tumor inhibition rate at 0.5 mg/kg, ip measured every day for 21 days by caliper method relative to control; format: functional; settings: A549, 504 h, time 21 day
A549 [2] = experiment: Induction of apoptosis in human A549 cells assessed as total apoptotic cells at 0.4 uM incubated for 48 hrs Annexin V-FITC/propidium iodide staining based flow cytometry relative to control; format: functional
A549 [3] = experiment: Antiproliferative activity against human A549 cells assessed as inhibition of cell growth incubated for 48 hrs by MTT assay; format: functional, cell-based; settings: A549, 48 h
[4] = Stability of the compound in PBS/MeOH buffer by HPLC analysis; format: physicochemical
A549 [5] = experiment: Induction of apoptosis in human A549 cells assessed as downregulation of Cdk4 level incubated for 12 hrs by Western blot analysis; format: functional, cell-based; settings: dose 1.25-5 µM, DDE = dose-dependent effect
A549 [6] = experiment: Antiproliferative activity against human A549 cells expressing Cdc37 protein assessed as inhibition of cell growth incubated for 48 hrs by MTT assay; format: functional, cell-based; settings: A549, 48 h
U2OS = experiment: Antiproliferative activity against human U2OS cells assessed as inhibition of cell growth incubated for 48 hrs by MTT assay; format: functional, cell-based
A549 [7] = experiment: Induction of apoptosis in human A549 cells assessed as total apoptotic cells at 0.8 uM incubated for 48 hrs Annexin V-FITC/propidium iodide staining based flow cytometry relative to control; format: functional
HCT-116 = experiment: Antiproliferative activity against human HCT-116 cells assessed as inhibition of cell growth incubated for 48 hrs by MTT assay; format: functional, cell-based; settings: HCT-116, 48 h
[8] = target: T1, Hsp90 co-chaperone Cdc37 (Homo sapiens) (UniProt Q16543); experiment: Binding affinity to Cdc37 (unknown origin) at 80 uM by UV-Vis spectrophotometric analysis
T1 sequence (whole entry): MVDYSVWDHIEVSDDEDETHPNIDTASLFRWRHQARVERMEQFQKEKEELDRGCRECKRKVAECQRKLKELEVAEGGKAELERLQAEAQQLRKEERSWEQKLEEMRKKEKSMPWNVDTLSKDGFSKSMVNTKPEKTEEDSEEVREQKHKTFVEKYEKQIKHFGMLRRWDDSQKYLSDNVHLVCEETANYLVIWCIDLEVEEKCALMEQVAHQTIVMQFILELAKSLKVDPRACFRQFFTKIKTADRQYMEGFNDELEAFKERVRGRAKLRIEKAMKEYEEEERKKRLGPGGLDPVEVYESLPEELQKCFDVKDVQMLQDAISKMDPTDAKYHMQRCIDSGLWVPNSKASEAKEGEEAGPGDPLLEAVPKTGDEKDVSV

[9] = target: Heat shock protein HSP90 (Homo sapiens) (UniProt P07900+P08238); experiment: Binding affinity to Hsp90 (unknown origin) at 80 uM by UV-Vis spectrophotometric analysis; format: protein assay
A549 [10] = experiment: Induction of apoptosis in human A549 cells at 0.1 to 0.4 uM incubated for 48 hrs by Hoechst33342 staining based fluorescence microscopic analysis; format: functional, cell-based; settings: dose 0.1-0.4 µM
A549 [11] = experiment: Upregulation of cleaved capase-3 expression in human A549 cells at 1.25 to 5 uM incubated for 12 hrs by Western blot analysis; format: functional, cell-based; settings: dose 1.25-5 µM
A549 [12] = experiment: […] of Bcl-2 protein expression in human A549 cells at 1.25 to 5 uM incubated for 12 hrs by Western blot analysis; format: functional, cell-based; settings: dose 1.25-5 µM
A549 [13] = experiment: Inhibition of Hsp90-Cdc37 complex in human A549 cells assessed as decrease in Hsp90-Cdc37 protein level at 10 uM incubated for 6 hrs by co-immunoprecipitation assay relative to CEL; format: cell-based
A549 [14] = experiment: Upregulation of cleaved PARP expression in human A549 cells at 1.25 to 5 uM incubated for 12 hrs by Western blot analysis; format: functional, cell-based; settings: dose 1.25-5 µM
A549 [15] = experiment: Antitumor activity against human A549 cells xenografted in BALB/c mouse lung tumor model assessed as tumor inhibition rate at 1 mg/kg, ip measured every day for 21 days by caliper method relative to control; format: functional; settings: A549, 504 h, time 21 day
MDA-MB-231 = experiment: Antiproliferative activity against human MDA-MB-231 cells assessed as inhibition of cell growth incubated for 48 hrs by MTT assay; format: functional, cell-based; settings: MDA-MB-231, 48 h
A549 [16] = experiment: Antitumor activity against human A549 cells xenografted in BALB/c mouse lung tumor model assessed as tumor weight at 1 mg/kg, ip measured every day for 21 days by caliper method; format: functional; settings: time 21 day
[17] = Toxicity in BALB/c mouse xenografted with human A549 cells assessed as reduction in body weight at 0.5 to 1 mg/kg, ip measured for 21 days; format: organism-based; settings: in vivo, 504 h, dose 0.5-1 mg/kg, time 21 day
A549 [18] = experiment: Induction of apoptosis in human A549 cells assessed as total apoptotic cells at 0.2 uM incubated for 48 hrs Annexin V-FITC/propidium iodide staining based flow cytometry relative to control; format: functional
A549 [19] = experiment: Induction of cell cycle arrest in human A549 cells assessed as accumulation of cells at G0/G1 phase measured after 24 hrs by PI staining based flow cytometry analysis; format: functional; settings: dose 0.1-0.4 µM, DDE = dose-dependent effect
A549 [20] = experiment: Upregulation of Bax protein expression in human A549 cells at 1.25 to 5 uM incubated for 12 hrs by Western blot analysis; format: functional, cell-based; settings: dose 1.25-5 µM
[21] = Thiol reactivity of the compound with DTT by 1H-NMR analysis; format: physicochemical
A549 [22] = experiment: Induction of apoptosis in human A549 cells assessed as downregulation of p-Akt level incubated for 12 hrs by Western blot analysis; format: functional, cell-based; settings: dose 1.25-5 µM, DDE = dose-dependent effect
A549 [23] = experiment: Antiproliferative activity against human A549 cells expressing Hsp90 protein assessed as inhibition of cell growth incubated for 48 hrs by MTT assay; format: functional, cell-based; settings: A549, 48 h
A549 [24] = experiment: Antiproliferative activity against human A549 cells expressing Hsp90-Cdc37 protein assessed as inhibition of cell growth incubated for 48 hrs by MTT assay; format: functional, cell-based; settings: A549, 48 h

IC50 (A549 [3]): 540 nM | Stability [4]: Stable | IC50 (A549 [6]): > 100000 nM | IC50 (U2OS): 570 nM | IC50 (HCT-116): 590 nM | Activity [8]: Active | Activity [9]: Active | IC50 (MDA-MB-231): 570 nM | Activity [21]: Active | IC50 (A549 [23]): > 100000 nM | IC50 (A549 [24]): > 100000 nM
Compound: CC1=C(O)C(=O)C=C2C1=CC=C1[C@@]2(C)CC[C@@]2(C)[C@@H]3C[C@](C)(C(=O)OCCCn4cc([N+](=O)[O-])nc4Cl)CC[C@]3(C)CC[C@]12C
inhibition in vivo at 0.5 mg/kg (A549 [1]): 54.1% | Activity (A549 [2]): 11.7% | Activity (A549 [5]): Dde | Activity (A549 [7]): 29.9% | Activity (A549 [10]): Active | Activity (A549 [11]): Active | Activity (A549 [12]): Active | inhibition (A549 [13]): 33.3% | Activity (A549 [14]): Active | inhibition in vivo at 1 mg/kg (A549 [15]): 68.3% | Activity (A549 [16]): 0.46 g | Activity [17]: Non-Toxic | Activity (A549 [18]): 9% | Activity (A549 [19]): Dde | Activity (A549 [20]): Active | Activity (A549 [22]): Dde
